The text below walks through data of PMC12277590 (Drug Design, Development and Therapy, 2025).

Like-named read-outs stand apart in the source and are kept apart here.

Data set [1] is classed as in vivo, male Sprague-Dawley rats. Conditions: rats.
Another data set has as its system human UGT1A9. Conditions: ref 14; cited from earlier work.
For another data set, the system named is human UGT1A1. Conditions: ref 14; cited from earlier work.
For data set [2] the following is noted: oral intake in human; cited from earlier work.
Another data set has as its system UGT1A3. Conditions: ref 14; cited from earlier work.
For data set [3] the following is noted: cited from earlier work.
For the next data set, the system named is plasma proteins. Conditions: cited from earlier work.
The next data set has as its system BCRP. Conditions: read-out: IC50, BCRP; cited from earlier work.
For data set [4] the following is noted: markedly low water solubility and high permeability; cited from earlier work.
The next data set relates to CYP2C19. Conditions: in vitro; cited from earlier work.
A further data set concerns MRP2. Conditions: read-out: IC50, MRP2; cited from earlier work.
For data set [5] the following is noted: cited from earlier work. The source holds these as a separate data set.
The subject of the next data set is P-gp. Conditions: read-out: IC50, P-gp; cited from earlier work.
The mark [6] stands for this setting: after multiple doses of telmisartan vs sorafenib alone.
Setting [7] is: oral sorafenib in humans, mass balance.
[8] abbreviates: after multiple doses of telmisartan vs donafenib alone.
Setting [9] is: after multiple doses of donafenib vs telmisartan alone.

In the case of `CNC(=O)c1cc(Oc2ccc(NC(=O)Nc3ccc(Cl)c(C(F)(F)F)c3)cc2)ccn1` [Sorafenib], in data set [1] (setting [6]), the “decrease in CLz/F of sorafenib” value is given as 46.0%, the “decrease in Vz/F of sorafenib” value was determined as 50.4%, the “increase in AUC0-t of sorafenib” value was 77.7% and the “increase in AUC0-∞ of sorafenib” value is listed as 75.8%. Further, in [1] (setting [6]), the “increase in Cmax of sorafenib” value came out at 60.9%. Further, in the data set on human UGT1A9, the “inhibition of human UGT1A9” value is “potent inhibitor”. Besides, in the data set on human UGT1A1, the “inhibition of human UGT1A1” value is recorded as “potent inhibitor”. The “time to maximum plasma concentration” value in data set [2] is listed as “about 3 hours”. Further, the “inhibitory effects on UGT1A3” value with UGT1A3 was “no inhibitory effects”. Further, in data set [3] (setting [7]), the “drug eliminated as oxidative metabolites” value was “less than 5%” and the “drug eliminated as sorafenib-β-D-glucuronide (SG)” value is on record as 15%. In the data set on plasma proteins (sorafenib, human), the “binding to plasma proteins” value is recorded as “more than 99%”.

Turning to `[2H]C([2H])([2H])NC(=O)c1cc(Oc2ccc(NC(=O)Nc3ccc(Cl)c(C(F)(F)F)c3)cc2)ccn1` [Donafenib], in [1] (setting [8]), the “decrease in t1/2 of donafenib” value was found to be 35.0% and the “increase in CLz/F of donafenib” value is reported as 87.5%. For the same molecule, in [3] (ref 41), the “N-oxidation (M2), % of total drug” value was 24.76% and the “glucuronidation (M7), % of total drug” value is on record as 4.82%.

A word on the IC50: it is the concentration that inhibits the measured activity by half. On to `CCCc1nc2c(C)cc(-c3nc4ccccc4n3C)cc2n1Cc1ccc(-c2ccccc2C(=O)O)cc1` [Telmisartan], for which, in data set [1] (setting [9]), the “decrease in CLz/F of telmisartan” value was found to be 57.3%. In addition, the “decrease in Vz/F of telmisartan” value in data set [1] (setting [9]) was found to be 45.6%. The “increase in AUC0-∞ of telmisartan” value in [1] (setting [9]) is 0.98 fold. In [1] (multiple doses of sorafenib vs telmisartan alone), the “effect of sorafenib on the pharmacokinetic parameters of telmisartan” value is reported as “does not significantly affect”. For the same molecule, the IC50 in the data set with BCRP is 6.7 µM; in the data set on MRP2, 38.2 µM; in the data set with P-gp, 12.4 µM. Besides, in data set [4], the BCS class result is “class II”. The “inhibition of CYP2C19” value in the data set with CYP2C19 is on record as “minor inhibition”. In the data set on plasma proteins (telmisartan), the “binding to plasma proteins” value was 99.5%. Moreover, the “proportion metabolized to acyl-glucuronides by UGT1A3” value in data set [5] (ref 25,27) and in data set [5] (ref 34) was 11% throughout. The half-life for elimination entry in data set [5] (ref 26) was “about 24 hours”.
